In US20240246942A1, “KINASE INHIBITORS FOR THE TREATMENT OF NEURODEGENERATIVE DISEASES” (priority 2020, published 2024) one finds remaining activity data, which are given here for three compounds.

Holding throughout (experiment): biochemical
Assay [1] has as its target T1, panel of 374 wild-type kinases (Homo sapiens, UniProt Q9UKE5).
T1 construct: purchased Reaction Biology Corporation
Conditions: read-out: % Enzyme Activity (relative to DMSO controls), kinase TNIK.

Assay [2] addresses T2, panel of 374 wild-type kinases (Homo sapiens, UniProt Q07912).
T2 construct: purchased Reaction Biology Corporation
Conditions: read-out: % Enzyme Activity (relative to DMSO controls), ACK1.

Assay [3] has as its target T3, panel of 374 wild-type kinases (Homo sapiens, UniProt P51451).
T3 construct: purchased Reaction Biology Corporation
Conditions: read-out: % Enzyme Activity (relative to DMSO controls), BLK.

The target in assay [4] is T4, panel of 374 wild-type kinases (Homo sapiens, UniProt O15530).
T4 construct: purchased Reaction Biology Corporation
T4 sequence (O15530 1-556): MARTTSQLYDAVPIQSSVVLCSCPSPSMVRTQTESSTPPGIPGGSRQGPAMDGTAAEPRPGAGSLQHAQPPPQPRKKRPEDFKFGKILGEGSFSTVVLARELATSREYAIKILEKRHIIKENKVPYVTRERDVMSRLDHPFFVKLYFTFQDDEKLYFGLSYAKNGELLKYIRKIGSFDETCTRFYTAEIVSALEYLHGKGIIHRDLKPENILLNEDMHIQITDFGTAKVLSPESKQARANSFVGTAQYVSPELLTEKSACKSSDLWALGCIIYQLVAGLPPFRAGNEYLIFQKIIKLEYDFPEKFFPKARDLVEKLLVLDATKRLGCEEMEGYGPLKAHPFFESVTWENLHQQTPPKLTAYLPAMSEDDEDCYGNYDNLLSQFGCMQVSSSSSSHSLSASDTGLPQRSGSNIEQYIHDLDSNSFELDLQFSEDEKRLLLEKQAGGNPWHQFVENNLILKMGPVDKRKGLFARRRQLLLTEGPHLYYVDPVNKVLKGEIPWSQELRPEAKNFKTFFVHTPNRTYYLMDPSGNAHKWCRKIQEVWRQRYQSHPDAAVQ
The following applies: read-out: % Enzyme Activity (relative to DMSO controls), kinase PDK1/PDPK1.

For assay [5], the target named is T5, panel of 374 wild-type kinases (Homo sapiens, UniProt Q9UQB9).
T5 construct: purchased Reaction Biology Corporation
T5 sequence (Q9UQB9 1-309): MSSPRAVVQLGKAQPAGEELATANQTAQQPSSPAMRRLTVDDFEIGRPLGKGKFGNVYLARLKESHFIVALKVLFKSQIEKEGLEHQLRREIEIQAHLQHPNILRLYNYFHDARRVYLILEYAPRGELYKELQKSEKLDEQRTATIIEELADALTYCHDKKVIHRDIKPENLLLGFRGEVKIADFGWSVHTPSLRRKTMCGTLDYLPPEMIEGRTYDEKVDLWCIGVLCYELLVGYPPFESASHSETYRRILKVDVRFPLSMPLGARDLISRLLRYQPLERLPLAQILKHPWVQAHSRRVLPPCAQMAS
Conditions: read-out: % Enzyme Activity (relative to DMSO controls), Aurora C.

The target in assay [6] is T6, panel of 374 wild-type kinases (Homo sapiens, UniProt Q9P286).
T6 construct: purchased Reaction Biology Corporation
The following applies: read-out: % Enzyme Activity (relative to DMSO controls), kinase PAK5.

Assay [7] deals with T7, panel of 374 wild-type kinases (Homo sapiens, UniProt P57078).
T7 construct: purchased Reaction Biology Corporation
T7 sequence (P57078 1-832): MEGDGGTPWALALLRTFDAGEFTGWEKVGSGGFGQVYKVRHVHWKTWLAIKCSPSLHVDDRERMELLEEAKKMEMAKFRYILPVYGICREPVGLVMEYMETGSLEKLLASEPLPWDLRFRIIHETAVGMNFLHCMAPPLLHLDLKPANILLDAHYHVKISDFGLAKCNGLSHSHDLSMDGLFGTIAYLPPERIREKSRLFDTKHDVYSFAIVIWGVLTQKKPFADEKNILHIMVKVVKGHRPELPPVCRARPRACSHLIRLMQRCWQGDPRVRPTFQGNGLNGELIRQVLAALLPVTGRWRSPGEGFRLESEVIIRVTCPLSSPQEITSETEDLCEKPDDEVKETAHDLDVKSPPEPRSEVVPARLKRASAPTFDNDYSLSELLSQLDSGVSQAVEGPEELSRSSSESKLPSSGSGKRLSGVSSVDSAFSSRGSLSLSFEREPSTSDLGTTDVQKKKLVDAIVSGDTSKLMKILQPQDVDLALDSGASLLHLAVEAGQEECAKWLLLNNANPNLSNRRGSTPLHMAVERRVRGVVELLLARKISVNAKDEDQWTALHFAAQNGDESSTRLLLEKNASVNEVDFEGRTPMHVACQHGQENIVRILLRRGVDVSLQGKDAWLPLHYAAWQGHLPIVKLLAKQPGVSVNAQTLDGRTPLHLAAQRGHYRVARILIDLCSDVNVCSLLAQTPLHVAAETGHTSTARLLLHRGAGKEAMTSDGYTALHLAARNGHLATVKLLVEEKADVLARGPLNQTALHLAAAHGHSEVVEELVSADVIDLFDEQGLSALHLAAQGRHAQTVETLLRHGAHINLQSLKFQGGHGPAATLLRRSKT
Conditions: read-out: % Enzyme Activity (relative to DMSO controls), kinase RIPK4.

Assay [8] concerns the target T8, panel of 374 wild-type kinases (Homo sapiens, UniProt Q86UE8).
T8 construct: purchased Reaction Biology Corporation
The following applies: read-out: % Enzyme Activity (relative to DMSO controls), kinase TLK2.

T3 sequence (P51451 whole entry): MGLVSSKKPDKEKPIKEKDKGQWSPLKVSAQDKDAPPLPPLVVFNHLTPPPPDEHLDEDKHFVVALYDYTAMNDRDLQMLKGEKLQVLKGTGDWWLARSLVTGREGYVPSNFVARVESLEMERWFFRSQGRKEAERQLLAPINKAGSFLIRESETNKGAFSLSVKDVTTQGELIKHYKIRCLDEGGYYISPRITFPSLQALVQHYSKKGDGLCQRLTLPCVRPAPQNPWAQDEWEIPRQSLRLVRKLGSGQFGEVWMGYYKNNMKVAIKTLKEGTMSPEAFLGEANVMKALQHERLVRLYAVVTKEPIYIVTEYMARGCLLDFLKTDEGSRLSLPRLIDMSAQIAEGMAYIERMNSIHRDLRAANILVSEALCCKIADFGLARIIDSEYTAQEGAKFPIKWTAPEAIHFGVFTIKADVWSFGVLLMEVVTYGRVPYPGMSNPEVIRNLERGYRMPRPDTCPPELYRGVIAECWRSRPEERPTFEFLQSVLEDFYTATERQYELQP
T1 sequence (Q9UKE5 whole entry): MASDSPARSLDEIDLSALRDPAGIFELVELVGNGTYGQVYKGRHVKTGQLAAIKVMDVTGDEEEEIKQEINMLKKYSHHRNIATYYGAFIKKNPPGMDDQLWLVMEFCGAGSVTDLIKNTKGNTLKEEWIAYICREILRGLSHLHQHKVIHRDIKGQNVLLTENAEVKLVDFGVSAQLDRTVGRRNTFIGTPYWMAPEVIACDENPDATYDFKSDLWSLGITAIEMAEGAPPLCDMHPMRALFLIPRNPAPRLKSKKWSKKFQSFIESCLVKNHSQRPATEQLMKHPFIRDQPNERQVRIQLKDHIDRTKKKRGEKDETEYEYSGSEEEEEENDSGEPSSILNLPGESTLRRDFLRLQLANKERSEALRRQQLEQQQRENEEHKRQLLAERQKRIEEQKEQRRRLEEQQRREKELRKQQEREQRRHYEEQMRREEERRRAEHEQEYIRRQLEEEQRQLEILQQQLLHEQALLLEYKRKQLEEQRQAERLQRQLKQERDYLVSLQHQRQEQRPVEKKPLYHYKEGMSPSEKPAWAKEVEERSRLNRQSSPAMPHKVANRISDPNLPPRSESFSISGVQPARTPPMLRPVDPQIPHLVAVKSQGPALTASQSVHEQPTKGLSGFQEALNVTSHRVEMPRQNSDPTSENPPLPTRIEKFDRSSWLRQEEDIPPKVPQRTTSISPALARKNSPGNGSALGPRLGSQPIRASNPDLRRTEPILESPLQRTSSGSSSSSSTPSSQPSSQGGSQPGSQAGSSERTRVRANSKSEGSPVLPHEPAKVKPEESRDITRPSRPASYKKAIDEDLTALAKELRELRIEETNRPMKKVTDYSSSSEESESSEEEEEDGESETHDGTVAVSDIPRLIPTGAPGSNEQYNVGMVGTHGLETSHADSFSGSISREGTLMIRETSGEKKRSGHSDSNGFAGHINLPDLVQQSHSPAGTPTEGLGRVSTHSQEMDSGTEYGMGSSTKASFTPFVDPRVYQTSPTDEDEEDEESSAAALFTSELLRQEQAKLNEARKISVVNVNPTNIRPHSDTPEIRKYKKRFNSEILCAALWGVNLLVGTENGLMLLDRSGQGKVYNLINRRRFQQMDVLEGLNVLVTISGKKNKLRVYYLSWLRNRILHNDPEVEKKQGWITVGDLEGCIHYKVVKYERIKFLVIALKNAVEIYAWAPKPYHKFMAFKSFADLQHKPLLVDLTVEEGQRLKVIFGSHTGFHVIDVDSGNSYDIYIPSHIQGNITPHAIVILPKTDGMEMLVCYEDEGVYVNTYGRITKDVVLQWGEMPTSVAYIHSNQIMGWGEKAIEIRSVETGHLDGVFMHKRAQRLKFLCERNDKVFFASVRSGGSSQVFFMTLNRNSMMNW
T8 sequence (Q86UE8 whole entry): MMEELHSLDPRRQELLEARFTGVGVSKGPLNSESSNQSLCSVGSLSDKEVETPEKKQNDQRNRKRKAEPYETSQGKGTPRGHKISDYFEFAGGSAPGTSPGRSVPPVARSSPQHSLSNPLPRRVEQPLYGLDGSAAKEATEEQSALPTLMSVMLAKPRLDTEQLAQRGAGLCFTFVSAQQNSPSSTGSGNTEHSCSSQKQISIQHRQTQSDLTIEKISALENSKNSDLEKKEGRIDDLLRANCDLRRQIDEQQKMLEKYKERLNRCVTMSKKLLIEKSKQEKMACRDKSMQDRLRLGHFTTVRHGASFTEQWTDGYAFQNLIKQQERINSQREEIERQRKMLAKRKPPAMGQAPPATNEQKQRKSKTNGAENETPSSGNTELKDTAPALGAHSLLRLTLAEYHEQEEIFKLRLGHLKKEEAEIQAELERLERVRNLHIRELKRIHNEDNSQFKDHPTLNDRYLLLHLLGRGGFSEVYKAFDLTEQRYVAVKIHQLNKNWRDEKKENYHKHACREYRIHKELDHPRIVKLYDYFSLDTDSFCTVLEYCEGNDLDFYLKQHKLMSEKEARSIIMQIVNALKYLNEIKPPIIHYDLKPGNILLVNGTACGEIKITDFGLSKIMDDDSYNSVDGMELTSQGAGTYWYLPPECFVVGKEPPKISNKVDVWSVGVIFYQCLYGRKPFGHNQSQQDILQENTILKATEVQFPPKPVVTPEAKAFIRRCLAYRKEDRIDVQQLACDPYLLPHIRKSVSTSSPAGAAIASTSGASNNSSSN
T6 sequence (Q9P286 whole entry): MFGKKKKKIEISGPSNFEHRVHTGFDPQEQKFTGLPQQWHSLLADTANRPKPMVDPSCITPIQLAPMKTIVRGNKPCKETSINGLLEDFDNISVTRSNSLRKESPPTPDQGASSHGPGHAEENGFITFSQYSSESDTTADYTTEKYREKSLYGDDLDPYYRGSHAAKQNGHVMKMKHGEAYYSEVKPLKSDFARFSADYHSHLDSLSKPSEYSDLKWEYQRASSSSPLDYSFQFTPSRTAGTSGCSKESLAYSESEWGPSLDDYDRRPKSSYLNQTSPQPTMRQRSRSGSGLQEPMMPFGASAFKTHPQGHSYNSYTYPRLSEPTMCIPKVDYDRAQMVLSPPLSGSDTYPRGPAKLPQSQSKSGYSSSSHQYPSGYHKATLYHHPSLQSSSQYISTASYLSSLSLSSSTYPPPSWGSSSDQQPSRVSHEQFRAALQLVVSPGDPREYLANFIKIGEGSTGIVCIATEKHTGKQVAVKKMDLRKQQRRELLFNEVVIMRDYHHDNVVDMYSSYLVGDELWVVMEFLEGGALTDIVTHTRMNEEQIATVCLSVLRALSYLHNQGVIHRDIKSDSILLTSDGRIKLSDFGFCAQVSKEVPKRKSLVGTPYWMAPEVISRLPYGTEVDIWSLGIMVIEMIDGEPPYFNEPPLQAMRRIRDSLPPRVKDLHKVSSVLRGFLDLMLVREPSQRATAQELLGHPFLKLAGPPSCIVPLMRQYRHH
T2 sequence (Q07912 whole entry): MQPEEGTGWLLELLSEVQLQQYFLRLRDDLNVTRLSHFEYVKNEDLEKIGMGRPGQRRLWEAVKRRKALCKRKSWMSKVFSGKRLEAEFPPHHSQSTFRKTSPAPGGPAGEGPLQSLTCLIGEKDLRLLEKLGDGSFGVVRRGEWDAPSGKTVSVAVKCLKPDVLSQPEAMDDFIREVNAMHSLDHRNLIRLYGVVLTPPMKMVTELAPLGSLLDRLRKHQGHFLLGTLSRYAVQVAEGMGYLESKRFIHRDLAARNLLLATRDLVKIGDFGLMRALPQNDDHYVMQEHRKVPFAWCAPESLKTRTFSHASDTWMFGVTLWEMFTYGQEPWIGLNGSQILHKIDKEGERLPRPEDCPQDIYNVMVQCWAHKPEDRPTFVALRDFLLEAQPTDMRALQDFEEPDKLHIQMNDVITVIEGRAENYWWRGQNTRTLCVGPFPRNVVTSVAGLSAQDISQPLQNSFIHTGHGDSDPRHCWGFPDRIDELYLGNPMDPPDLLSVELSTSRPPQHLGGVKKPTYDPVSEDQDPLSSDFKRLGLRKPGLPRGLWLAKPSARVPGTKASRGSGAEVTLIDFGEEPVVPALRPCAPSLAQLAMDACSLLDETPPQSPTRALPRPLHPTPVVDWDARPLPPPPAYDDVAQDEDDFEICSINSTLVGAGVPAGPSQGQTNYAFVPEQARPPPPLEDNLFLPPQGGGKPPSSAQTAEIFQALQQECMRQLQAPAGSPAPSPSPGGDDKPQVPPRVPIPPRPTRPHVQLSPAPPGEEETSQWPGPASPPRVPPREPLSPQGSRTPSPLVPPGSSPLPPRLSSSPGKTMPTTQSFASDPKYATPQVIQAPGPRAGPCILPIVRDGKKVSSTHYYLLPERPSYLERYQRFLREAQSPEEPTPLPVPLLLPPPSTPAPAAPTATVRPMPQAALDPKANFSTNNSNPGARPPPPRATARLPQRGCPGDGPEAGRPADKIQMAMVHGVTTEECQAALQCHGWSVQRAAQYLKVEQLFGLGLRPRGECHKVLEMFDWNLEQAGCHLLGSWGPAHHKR

For `Cc1sc(C(=O)NC2COC2)cc1-n1cc(NC(=O)Nc2c(F)cccc2Cl)cn1` [Compound 27, 4-(4-(3-(2-chloro-6-fluorophenyl)ureido)-1H-pyrazol-1-yl)-5-methyl-N-(oxetan-3-yl)thiophene-2-carboxamide], the remaining activity at 10 µM in assay [1] (10 uM) is 94.5%; in assay [2] (10 uM) it was 106%; in assay [3] (10 uM) it was 112%; in assay [4] (10 uM), 99.2%; in assay [5] (10 uM) it was 104%; in assay [6] (10 uM), 103%. For the same compound, the remaining activity at 10 µM turned out to be 103% in assay [7] (10 uM) and 97.2% in assay [8] (10 uM).

Regarding `O=C(Nc1cnn(-c2csc(C(=O)NC3COC3)c2)c1)Nc1c(F)cccc1Cl` [Compound 25, 4-(4-(3-(2-chloro-6-fluorophenyl)ureido)-1H-pyrazol-1-yl)-N-(oxetan-3-yl)thiophene-2-carboxamide], the remaining activity at 5 µM was 84.3% in assay [1]; 94.6% in assay [2]; 96.1% in assay [3]; 99.6% in assay [4]; 58.5% in assay [5]; 92.9% in assay [6]. The values for the remaining activity at 5 µM in assay [7] and in assay [8] were 96.7% and 109%, respectively.

As to `O=C(Nc1cnn(-c2csc(C(=O)NC3COC3)c2)c1)Nc1ccccc1Cl` [Compound 17, 4-(4-(3-(2-chlorophenyl)ureido)-1H-pyrazol-1-yl)-N-(oxetan-3-yl)thiophene-2-carboxamide], the remaining activity at 5 µM worked out at 53.2% in assay [1]; 85.6% in assay [2]; 79.2% in assay [3]; 101% in assay [4]; 104% in assay [5]; 92.1% in assay [6]. Also, the remaining activity at 5 µM in assay [7] came to 89.2%; in assay [8], 99.1%.
